Laboratory results: patent US7799811B2, “Agent for prevention and treatment of cancer comprising oxadiazole urea compound obstructing activity of stat” (Korea Research Institute of Bioscience and Biotechnology, priority 2006, dated 2010)
pIC50: −log10 of the molar value.

Assays:
solubility in solvents = format: physicochemical
[1] = tested on: colorectal carcinoma HCT116 cells; assay: WST-1 growth inhibition assay, HCT116; format: cell-based; conditions: Homo sapiens, HCT-116, 24 hrs
Experimental: (§1) The oxadiazole urea compound of the present invention was estimated for growth inhibitory activity against other human cancer cell lines in a WST-1 assay.
(§2) Human cancer cell lines were cultured in 10% fetal bovine serum (FBS)-containing medium at 37[…] under 5% CO2, and detached using 0.05% trypsin-EDTA. Cells were seeded onto a 96-well plate at a density of 5×10^3 cells per well (for MDA-MB-231 and MDA-MB-468 breast cancer cells) or at a density of 7×10^3 cells per well (for colorectal carcinoma HCT116 and colon cancer SW620 cells).
(§3) Then, cells were cultured in 10% FBS containing medium in an incubator at 37[…] under 5% CO2. After 24 hrs, the medium was exchanged with a medium containing 0.1% DMSO (as a control), or with media containing the oxadiazole urea compound at various concentrations (the compound dissolved in DMSO was diluted in medium), and cells were further cultured for 24 hrs. 10 μl of WST-1 Reagent (Roche) was added to each well, and the plate was incubated for 2 hrs. Absorbance was measured at 450 nm using an ELISA reader (Bio-Rad).

colon cancer SW620 cells = assay: WST-1 growth inhibition assay, SW620; format: cell-based; conditions: Homo sapiens, SW-620, 24 hrs
Experimental: as §1, §2, §3

STAT3 = target: T1, STAT3 (Homo sapiens, UniProt P40763); assay: dual luciferase assay for STAT3 inhibitory activity in transfected HCT116 cells; format: cell-based; conditions: HCT116 cells transfected with STAT3-dependent firefly luciferase; 12 hrs or 24 hrs; read-out: concentration inhibiting 50% of STAT3 activity
T1 construct: Colorectal carcinoma HCT116 cells were co-transfected with a plasmid carrying firefly luciferase, whose expression increases with STAT3 activity; endogenous in cells; host or cells: HCT116 human colorectal carcinoma cells
Experimental: A dual luciferase assay was performed to determine whether the oxadiazole urea compound of the present invention has inhibitory activity against STAT3.
Colorectal carcinoma HCT116 cells were co-transfected with a plasmid carrying firefly luciferase, whose expression increases with STAT3 activity, and another plasmid carrying renilla luciferase, which is expressed independently of STAT3 activity. The transfected HCT116 cells were detached using 0.05% trypsin EDTA and seeded onto a 96-well test plate at a density of 1×10^4 cells per well. Cells were cultured in an incubator at 37[…] under 5% CO2 for 3 hrs, and then incubated with DMSO (1%) alone as a control and with the oxadiazole urea compound (dissolved in DMSO) at various concentrations (diluted 1/100).
After 12 hrs or 24 hrs, STAT activity was assayed by adding two different substrates for firefly luciferase and renilla luciferase, beetle luciferin and coelenterazine, to the medium. The luminescence intensity by substrate degradation was measured using a luminometer (Wallac 1420). The measured firefly luciferase activity reflected STAT3 activity in a proportional manner. Renilla luciferase was used to calibrate non-specific cytotoxicity, occurring in each test group, and internal deviation.

SD rats = assay: acute toxicity test on oral application in rats; format: in vivo; conditions: single oral dose of 1 g/kg/ml
Experimental: An acute toxicity test was conducted with 6-week-old specific pathogen-free (SPF) SD rats. The present compound was suspended in injectable distilled water, and orally administered to two SD rats per group at a single dose of 1 g/kg/ml. […] After autopsy, abnormalities of abdominal and thoracic organs were visually observed.

[2] = tested on: MDA-MB-468 breast cancer cells; assay: WST-1 growth inhibition assay, MDA-MB-468; format: cell-based; conditions: Homo sapiens, MDA-MB-468 cells, 24 hrs
Experimental: as §1, §2, §3

[3] = tested on: MDA-MB-231 breast cancer cells; assay: WST-1 growth inhibition assay, MDA-MB-231; format: cell-based, human; conditions: MDA-MB-231 cells, 24 hrs
Experimental: as §1, §2, §3

T1 sequence (P40763 whole entry): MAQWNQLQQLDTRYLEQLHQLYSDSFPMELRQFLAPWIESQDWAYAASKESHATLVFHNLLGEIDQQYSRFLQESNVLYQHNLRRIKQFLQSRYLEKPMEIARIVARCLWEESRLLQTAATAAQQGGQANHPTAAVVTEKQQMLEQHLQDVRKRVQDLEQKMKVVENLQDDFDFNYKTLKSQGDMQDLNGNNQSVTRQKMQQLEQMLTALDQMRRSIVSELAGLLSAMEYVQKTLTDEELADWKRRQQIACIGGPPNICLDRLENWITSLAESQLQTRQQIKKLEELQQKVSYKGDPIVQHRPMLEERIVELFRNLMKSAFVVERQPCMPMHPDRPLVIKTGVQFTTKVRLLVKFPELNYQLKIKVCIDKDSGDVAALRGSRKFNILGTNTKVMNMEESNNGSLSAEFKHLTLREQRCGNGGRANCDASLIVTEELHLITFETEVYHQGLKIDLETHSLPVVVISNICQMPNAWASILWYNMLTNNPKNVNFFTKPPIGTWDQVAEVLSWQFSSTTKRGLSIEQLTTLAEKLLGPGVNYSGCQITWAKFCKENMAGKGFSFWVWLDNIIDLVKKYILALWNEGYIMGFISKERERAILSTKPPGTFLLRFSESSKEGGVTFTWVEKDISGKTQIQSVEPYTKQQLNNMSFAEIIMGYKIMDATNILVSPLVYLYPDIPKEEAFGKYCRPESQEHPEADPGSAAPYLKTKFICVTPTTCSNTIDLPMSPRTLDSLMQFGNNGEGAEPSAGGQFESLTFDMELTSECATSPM

With `O=C(Nc1ccc(C(F)(F)F)cc1)Nc1nonc1-c1ccc(Cl)cc1` [compound of Chemical Formula 1] the “solubility in a nonpolar solvent” value (solubility in solvents; nonpolar solvent, such as hexane) was “not dissolved”, the “solubility in a polar solvent” value (solubility in solvents; polar solvent, such as DMSO) was “well dissolved” and the GI50 [1] was 15 µM. The GI50 (colon cancer SW620 cells) was 70 µM, the pIC50 (STAT3) was 5.52 to 5.60 and the clinical symptoms (SD rats) was “no special clinical symptoms”. For the same molecule, the GI50 [2] was 40 µM and the “50% growth inhibition concentration” value [3] was no less than 100 μm.
